Measurements from PubChem BioAssay AID272 (DTP/NCI, 2004).
Where “and” joins values, the source holds several entries; their conditions need not be identical. Equal entries are not always repeated. Records with an inconclusive call do not appear.

Tested on: Lewis lung carcinoma i.m., BDF1 mice, T/C %
Assay: NCI In Vivo Anticancer Drug Screen. Data for tumor model Lewis Lung Carcinoma (intramuscular) in B6D2F1 (BDF1) mice
Conditions: endpoint: mean tumor weight, higher = larger tumour
How it was run: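 Antitumour activity is assessed in transplanted-tumour mice. Endpoint is survival or tumour size, normalised to vehicle-dosed controls (T/C).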

With `CCc1nc(N)nc(N)c1-c1ccc(Cl)cc1` the T/C (dose: 2.0 mg/kg/injection, schedule: Q06HX008 (ip), vehicle: Klucel (hydroxypropylcellulose) (HPC)) was 104 % of control, the T/C (dose: 4.0 mg/kg/injection, schedule: Q01DX009 (ip), vehicle: Klucel (hydroxypropylcellulose) (HPC)) was 87 % of control and the T/C (dose: 4.0 mg/kg/injection, schedule: Q01DX009 (oral), vehicle: Klucel (hydroxypropylcellulose) (HPC)) was 37 % of control. For the same compound, the T/C (dose: 4.0 mg/kg/injection, schedule: Q01DX009 (sc), vehicle: Klucel (hydroxypropylcellulose) (HPC)) was 95 % of control, the T/C (dose: 4.0 mg/kg/injection, schedule: Q06HX004 (ip), vehicle: Klucel (hydroxypropylcellulose) (HPC)) was 82 % of control and the T/C (dose: 4.0 mg/kg/injection, schedule: Q06HX012 (ip), vehicle: Klucel (hydroxypropylcellulose) (HPC)) was 71 % of control. The T/C (dose: 8.0 mg/kg/injection, schedule: Q01DX001 (sc), vehicle: Klucel (hydroxypropylcellulose) (HPC)) was 66 % of control, the T/C (dose: 8.0 mg/kg/injection, schedule: Q01DX009 (ip), vehicle: Klucel (hydroxypropylcellulose) (HPC)) was 67 % of control and the T/C (dose: 8.0 mg/kg/injection, schedule: Q01DX009 (oral), vehicle: Klucel (hydroxypropylcellulose) (HPC)) was 31 % of control. The T/C (dose: 8.0 mg/kg/injection, schedule: Q01DX009 (sc), vehicle: Klucel (hydroxypropylcellulose) (HPC)) was 76 % of control, the T/C (dose: 8.0 mg/kg/injection, schedule: Q04DX003 (ip), vehicle: Klucel (hydroxypropylcellulose) (HPC)) was 92 % of control and the T/C (dose: 8.0 mg/kg/injection, schedule: Q06HX004 (ip), vehicle: Klucel (hydroxypropylcellulose) (HPC)) was 75 % of control. The T/C (dose: 8.0 mg/kg/injection, schedule: Q06HX008 (ip), vehicle: Klucel (hydroxypropylcellulose) (HPC)) was 65 % of control and 68 % of control, the T/C (dose: 8.0 mg/kg/injection, schedule: Q06HX012 (ip), vehicle: Klucel (hydroxypropylcellulose) (HPC)) was 57 % of control and the T/C (dose: 8.0 mg/kg/injection, schedule: Q08DX002 (ip), vehicle: Klucel (hydroxypropylcellulose) (HPC)) was 85 % of control. For the same compound, the T/C (dose: 12.5 mg/kg/injection, schedule: Q01DX011 (ip), vehicle: steriod suspending solution) was 65 % of control, the T/C (dose: 16.0 mg/kg/injection, schedule: Q01DX001 (ip), vehicle: Klucel (hydroxypropylcellulose) (HPC)) was 71 % of control and the T/C (dose: 16.0 mg/kg/injection, schedule: Q01DX001 (oral), vehicle: Klucel (hydroxypropylcellulose) (HPC)) was 84 % of control. For the same compound, the T/C (dose: 16.0 mg/kg/injection, schedule: Q01DX001 (sc), vehicle: Klucel (hydroxypropylcellulose) (HPC)) was 75 % of control and 80 % of control, the T/C (dose: 16.0 mg/kg/injection, schedule: Q01DX009 (ip), vehicle: Klucel (hydroxypropylcellulose) (HPC)) was 83 % of control and 98 % of control and the T/C (dose: 16.0 mg/kg/injection, schedule: Q01DX009 (oral), vehicle: Klucel (hydroxypropylcellulose) (HPC)) was 38 % of control. The T/C (dose: 16.0 mg/kg/injection, schedule: Q01DX009 (sc), vehicle: Klucel (hydroxypropylcellulose) (HPC)) was 80 % of control, the T/C (dose: 16.0 mg/kg/injection, schedule: Q04DX003 (ip), vehicle: Klucel (hydroxypropylcellulose) (HPC)) was 73 % of control and 78 % of control and the T/C (dose: 16.0 mg/kg/injection, schedule: Q06HX004 (ip), vehicle: Klucel (hydroxypropylcellulose) (HPC)) was 84 % of control. The T/C (dose: 16.0 mg/kg/injection, schedule: Q06HX008 (ip), vehicle: Klucel (hydroxypropylcellulose) (HPC)) was 58 % of control and 73 % of control, the T/C (dose: 16.0 mg/kg/injection, schedule: Q06HX012 (ip), vehicle: Klucel (hydroxypropylcellulose) (HPC)) was 56 % of control and the T/C (dose: 25.0 mg/kg/injection, schedule: Q01DX011 (ip), vehicle: steriod suspending solution) was 57 % of control. For the same compound, the T/C (dose: 32.0 mg/kg/injection, schedule: Q01DX001 (ip), vehicle: Klucel (hydroxypropylcellulose) (HPC)) was 75 % of control, the T/C (dose: 32.0 mg/kg/injection, schedule: Q01DX001 (oral), vehicle: Klucel (hydroxypropylcellulose) (HPC)) was 95 % of control and the T/C (dose: 32.0 mg/kg/injection, schedule: Q01DX001 (sc), vehicle: Klucel (hydroxypropylcellulose) (HPC)) was 85 % of control and 94 % of control. For the same compound, the T/C (dose: 32.0 mg/kg/injection, schedule: Q01DX009 (oral), vehicle: Klucel (hydroxypropylcellulose) (HPC)) was 32 % of control, the T/C (dose: 32.0 mg/kg/injection, schedule: Q01DX009 (sc), vehicle: Klucel (hydroxypropylcellulose) (HPC)) was 71 % of control and the T/C (dose: 32.0 mg/kg/injection, schedule: Q04DX003 (ip), vehicle: Klucel (hydroxypropylcellulose) (HPC)) was 76 % of control and 94 % of control. The T/C (dose: 32.0 mg/kg/injection, schedule: Q06HX008 (ip), vehicle: Klucel (hydroxypropylcellulose) (HPC)) was 62 % of control, the T/C (dose: 32.0 mg/kg/injection, schedule: Q08DX002 (ip), vehicle: Klucel (hydroxypropylcellulose) (HPC)) was 74 % of control and the T/C (dose: 50.0 mg/kg/injection, schedule: Q01DX011 (ip), vehicle: steriod suspending solution) was 50 % of control. The T/C (dose: 64.0 mg/kg/injection, schedule: Q01DX001 (ip), vehicle: Klucel (hydroxypropylcellulose) (HPC)) was 78 % of control, the T/C (dose: 64.0 mg/kg/injection, schedule: Q01DX001 (oral), vehicle: Klucel (hydroxypropylcellulose) (HPC)) was 85 % of control and the T/C (dose: 64.0 mg/kg/injection, schedule: Q01DX001 (sc), vehicle: Klucel (hydroxypropylcellulose) (HPC)) was 78 % of control and 81 % of control.
